{"source": "patent US10760052B2", "about": "“Method of inhibiting tau phosphorylation” (priority 2012, dated 2020)", "biological_target": "T1, mu opiate receptor (MOR) (Rattus norvegicus, UniProt P33535)", "T1 construct": "from tissue; host or cells: striatum (membrane preparation)", "T1 sequence (P33535 whole entry)": "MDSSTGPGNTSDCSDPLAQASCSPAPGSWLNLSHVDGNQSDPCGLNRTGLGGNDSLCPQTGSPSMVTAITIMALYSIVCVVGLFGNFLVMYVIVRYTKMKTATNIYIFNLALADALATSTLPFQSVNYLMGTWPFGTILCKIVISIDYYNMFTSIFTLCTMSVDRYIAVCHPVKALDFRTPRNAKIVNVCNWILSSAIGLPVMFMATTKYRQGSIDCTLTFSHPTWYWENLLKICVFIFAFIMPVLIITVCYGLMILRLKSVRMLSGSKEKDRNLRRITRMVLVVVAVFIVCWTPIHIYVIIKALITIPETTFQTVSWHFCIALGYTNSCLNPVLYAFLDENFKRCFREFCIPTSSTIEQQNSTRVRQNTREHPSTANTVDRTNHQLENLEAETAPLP", "format": "biochemical", "conditions": "for Concentration of FLNA-Binding Compound as Agonist 0.1 μM / Concentration of FLNA-Binding Compound as Agonist 1 μM / Concentration of FLNA-Binding Compound as Agonist 1 μM + BFNA: [35S]GTPγS binding to Gαo in striatal membranes; for Concentration of FLNA-Binding Compound as Agonist 0.1 μM: compound 0.1 μM; for Concentration of FLNA-Binding Compound as Agonist 1 μM: compound 1 μM; for Concentration of FLNA-Binding Compound as Agonist 1 μM + BFNA: compound 1 μM plus 1 μM β-funaltrexamine (MOR antagonist)", "data": [{"compound": "COc1ccc(CCC(O)CC2c3c(cc4c(c3OC)OCO4)CC[N+]2(C)C)cc1", "note": "(stereo not drawn) [Compound B0049]", "values": [{"measurement": "% DAMGO (0.1 μM)", "result": 102.8, "unit": "%"}, {"measurement": "% DAMGO (1 μM)", "result": 143.1, "unit": "%"}, {"measurement": "% DAMGO + BFNA", "result": 506.5, "unit": "%"}, {"measurement": "Concentration of FLNA-Binding Compound as Agonist 0.1 μM", "result": 181.6, "unit": "%"}, {"measurement": "Concentration of FLNA-Binding Compound as Agonist 1 μM", "result": 364.0, "unit": "%"}, {"measurement": "Concentration of FLNA-Binding Compound as Agonist 1 μM + BFNA", "result": 133.2, "unit": "%"}]}, {"compound": "COc1c2c(cc3c1C(CC(=O)CCc1ccccc1)N(C)CC3)OCO2", "note": "(stereo not drawn) [Compound B0050]", "values": [{"measurement": "% DAMGO (0.1 μM)", "result": 58.1, "unit": "%"}, {"measurement": "% DAMGO (1 μM)", "result": 96.4, "unit": "%"}, {"measurement": "% DAMGO + BFNA", "result": 294.0, "unit": "%"}, {"measurement": "Concentration of FLNA-Binding Compound as Agonist 0.1 μM", "result": 98.2, "unit": "%"}, {"measurement": "Concentration of FLNA-Binding Compound as Agonist 1 μM", "result": 211.0, "unit": "%"}, {"measurement": "Concentration of FLNA-Binding Compound as Agonist 1 μM + BFNA", "result": 48.8, "unit": "%"}]}, {"compound": "COc1c2c(cc3c1C(CC(O)CCc1ccccc1)N(C)CC3)OCO2", "note": "(stereo not drawn) [Compound B0051]", "values": [{"measurement": "% DAMGO (0.1 μM)", "result": 68.4, "unit": "%"}, {"measurement": "% DAMGO (1 μM)", "result": 76.7, "unit": "%"}, {"measurement": "% DAMGO + BFNA", "result": 263.9, "unit": "%"}, {"measurement": "Concentration of FLNA-Binding Compound as Agonist 0.1 μM", "result": 115.6, "unit": "%"}, {"measurement": "Concentration of FLNA-Binding Compound as Agonist 1 μM", "result": 167.9, "unit": "%"}, {"measurement": "Concentration of FLNA-Binding Compound as Agonist 1 μM + BFNA", "result": 43.8, "unit": "%"}]}, {"compound": "COc1c2c(cc3c1C(CC(O)CCc1ccccc1)[N+](C)(C)CC3)OCO2", "note": "(stereo not drawn) [Compound B0052]", "values": [{"measurement": "% DAMGO (0.1 μM)", "result": 58.1, "unit": "%"}, {"measurement": "% DAMGO (1 μM)", "result": 69.3, "unit": "%"}, {"measurement": "% DAMGO + BFNA", "result": 246.4, "unit": "%"}, {"measurement": "Concentration of FLNA-Binding Compound as Agonist 0.1 μM", "result": 98.2, "unit": "%"}, {"measurement": "Concentration of FLNA-Binding Compound as Agonist 1 μM", "result": 151.7, "unit": "%"}, {"measurement": "Concentration of FLNA-Binding Compound as Agonist 1 μM + BFNA", "result": 40.9, "unit": "%"}]}, {"compound": "COc1c2c(cc3c1C(CC(=O)Cc1ccccc1C)N(C)CC3)OCO2", "note": "(stereo not drawn) [Compound B0053]", "values": [{"measurement": "% DAMGO (0.1 μM)", "result": 94.8, "unit": "%"}, {"measurement": "% DAMGO (1 μM)", "result": 137.0, "unit": "%"}, {"measurement": "% DAMGO + BFNA", "result": 809.0, "unit": "%"}, {"measurement": "Concentration of FLNA-Binding Compound as Agonist 0.1 μM", "result": 160.2, "unit": "%"}, {"measurement": "Concentration of FLNA-Binding Compound as Agonist 1 μM", "result": 299.8, "unit": "%"}, {"measurement": "Concentration of FLNA-Binding Compound as Agonist 1 μM + BFNA", "result": 134.3, "unit": "%"}]}, {"compound": "COc1c2c(cc3c1C(CC(=O)Cc1ccccc1F)[N+](C)(C)CC3)OCO2", "note": "(stereo not drawn) [Compound B0055]", "values": [{"measurement": "% DAMGO (0.1 μM)", "result": 91.8, "unit": "%"}, {"measurement": "% DAMGO (1 μM)", "result": 133.1, "unit": "%"}, {"measurement": "% DAMGO + BFNA", "result": 446.8, "unit": "%"}, {"measurement": "Concentration of FLNA-Binding Compound as Agonist 0.1 μM", "result": 162.1, "unit": "%"}, {"measurement": "Concentration of FLNA-Binding Compound as Agonist 1 μM", "result": 338.5, "unit": "%"}, {"measurement": "Concentration of FLNA-Binding Compound as Agonist 1 μM + BFNA", "result": 117.5, "unit": "%"}]}, {"compound": "COc1ccc(CCCCC2c3c(cc4c(c3OC)OCO4)CC[N+]2(C)C)cc1", "note": "(stereo not drawn) [Compound B0056]", "values": [{"measurement": "% DAMGO (0.1 μM)", "result": 98.9, "unit": "%"}, {"measurement": "% DAMGO (1 μM)", "result": 113.6, "unit": "%"}, {"measurement": "% DAMGO + BFNA", "result": 158.9, "unit": "%"}, {"measurement": "Concentration of FLNA-Binding Compound as Agonist 0.1 μM", "result": 174.7, "unit": "%"}, {"measurement": "Concentration of FLNA-Binding Compound as Agonist 1 μM", "result": 288.8, "unit": "%"}, {"measurement": "Concentration of FLNA-Binding Compound as Agonist 1 μM + BFNA", "result": 41.8, "unit": "%"}]}, {"compound": "Cc1ccc(S(=O)(=O)N2CCC3(CC2)OCCN3S(=O)(=O)c2ccc(C)cc2)cc1", "note": "[Compound C0001]", "values": [{"measurement": "% DAMGO (0.1 μM)", "result": 75.2, "unit": "%"}, {"measurement": "% DAMGO (1 μM)", "result": 66.6, "unit": "%"}, {"measurement": "% DAMGO + BFNA", "result": 52.9, "unit": "%"}, {"measurement": "Concentration of FLNA-Binding Compound as Agonist 0.1 μM", "result": 129.3, "unit": "%"}, {"measurement": "Concentration of FLNA-Binding Compound as Agonist 1 μM", "result": 184.3, "unit": "%"}, {"measurement": "Concentration of FLNA-Binding Compound as Agonist 1 μM + BFNA", "result": 33.9, "unit": "%"}]}, {"compound": "COc1cccc(S(=O)(=O)N2CCC3(CC2)OCCN3S(=O)(=O)c2cccc(OC)c2)c1", "note": "[Compound C0002]", "values": [{"measurement": "% DAMGO (0.1 μM)", "result": 51.4, "unit": "%"}, {"measurement": "% DAMGO (1 μM)", "result": 33.9, "unit": "%"}, {"measurement": "% DAMGO + BFNA", "result": 6.1, "unit": "%"}, {"measurement": "Concentration of FLNA-Binding Compound as Agonist 0.1 μM", "result": 88.4, "unit": "%"}, {"measurement": "Concentration of FLNA-Binding Compound as Agonist 1 μM", "result": 93.8, "unit": "%"}, {"measurement": "Concentration of FLNA-Binding Compound as Agonist 1 μM + BFNA", "result": 3.9, "unit": "%"}]}, {"compound": "COc1ccccc1S(=O)(=O)N1CCC2(CC1)OCCN2S(=O)(=O)c1ccccc1OC", "note": "[Compound C0003]", "values": [{"measurement": "% DAMGO (0.1 μM)", "result": 91.9, "unit": "%"}, {"measurement": "% DAMGO (1 μM)", "result": 83.3, "unit": "%"}, {"measurement": "% DAMGO + BFNA", "result": 163.9, "unit": "%"}, {"measurement": "Concentration of FLNA-Binding Compound as Agonist 0.1 μM", "result": 162.3, "unit": "%"}, {"measurement": "Concentration of FLNA-Binding Compound as Agonist 1 μM", "result": 215.9, "unit": "%"}, {"measurement": "Concentration of FLNA-Binding Compound as Agonist 1 μM + BFNA", "result": 107.7, "unit": "%"}]}, {"compound": "N#Cc1ccccc1S(=O)(=O)N1CCC2(CC1)OCCN2S(=O)(=O)c1ccccc1C#N", "note": "[Compound C0004]", "values": [{"measurement": "% DAMGO (0.1 μM)", "result": 72.1, "unit": "%"}, {"measurement": "% DAMGO (1 μM)", "result": 85.4, "unit": "%"}, {"measurement": "% DAMGO + BFNA", "result": 99.7, "unit": "%"}, {"measurement": "Concentration of FLNA-Binding Compound as Agonist 0.1 μM", "result": 122.0, "unit": "%"}, {"measurement": "Concentration of FLNA-Binding Compound as Agonist 1 μM", "result": 228.4, "unit": "%"}, {"measurement": "Concentration of FLNA-Binding Compound as Agonist 1 μM + BFNA", "result": 65.8, "unit": "%"}]}]}
